Measured values from the supplement of paper PMC10307832.

Assays:
Assay in all cases: relative viability (nuclei count vs DMSO), 5 days (fraction); higher = more cells survive
[1] = compound: COC1=CC=C(C=C1)CN2C=CC3=C2C=C(C=C3)C(=O)NO + Cc1cc(Nc2cc(N3CCN(C)CC3)nc(Sc3ccc(NC(=O)C4CC4)cc3)n2)n[nH]1 [Tozasertib] (partner 0.1 µM)
Summary of the method: (§1)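 Nuclei were stained with Hoechst during a one-step fixation (final 0.05% Triton X-100, 1% formaldehyde, 1 ug/ml Hoechst) carried out 5 days after dosing, then counted on 4× images. The cells, lung cancer lines in 1536-well plates, had been dosed by pin tool the day after seeding with one drug alone or a fixed anchor-drug dose plus five library-drug doses (not always all listed) in √10 steps. Relative viability is the nuclei count in treated wells divided by that in vehicle wells, and each value is the median of duplicate plates.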

[2] = compound: COC1=CC=C(C=C1)CN2C=CC3=C2C=C(C=C3)C(=O)NO + Nc1ncn([C@H]2C[C@H](O)[C@@H](CO)O2)c(=O)n1 [Decitabine] (partner 2 µM)
Summary of the method: as §1

[3] = compound: C[C@]1(c2nc3c(C(N)=O)cccc3[nH]2)CCCN1 [Veliparib] + COc1cccc2cc(-c3nc([C@H]4CC[C@H](C(=O)O)CC4)n4ncnc(N)c34)[nH]c12 [OSI-027] (partner 0.5 µM)
Summary of the method: as §1

[4] = compound: C[C@]1(c2nc3c(C(N)=O)cccc3[nH]2)CCCN1 [Veliparib] + Cc1nc(Nc2ncc(C(=O)Nc3c(C)cccc3Cl)s2)cc(N2CCN(CCO)CC2)n1 [Dasatinib] (partner 0.075 µM)
Summary of the method: as §1

[5] = compound: C[C@]1(c2nc3c(C(N)=O)cccc3[nH]2)CCCN1 [Veliparib] + Nc1nc2[nH]cc(CCc3ccc(C(=O)N[C@@H](CCC(=O)O)C(=O)O)cc3)c2c(=O)[nH]1 [Pemetrexed] (partner 0.2 µM)
Summary of the method: as §1

SW 1573
relative viability ([1]; first compound 0.253 µM): 0.233 | relative viability ([1]; first compound 0.8 µM): 0.188 | relative viability ([1]; first compound 2.53 µM): 0.206 | relative viability ([1]; first compound 8 µM): 0.157 | relative viability ([2]; first compound 0.253 µM): 0.525 | relative viability ([2]; first compound 0.8 µM): 0.59 | relative viability ([2]; first compound 2.53 µM): 0.471 | relative viability ([2]; first compound 8 µM): 0.258 | relative viability ([3]; first compound 0.06325 µM): 0.558 | relative viability ([3]; first compound 0.2 µM): 0.597 | relative viability ([3]; first compound 0.6325 µM): 0.521 | relative viability ([3]; first compound 2 µM): 0.675 | relative viability ([4]; first compound 0.06325 µM): 0.659 | relative viability ([4]; first compound 0.2 µM): 0.38 | relative viability ([4]; first compound 0.6325 µM): 0.391 | relative viability ([4]; first compound 2 µM): 0.439 | relative viability ([5]; first compound 0.06325 µM): 0.721 | relative viability ([5]; first compound 0.2 µM): 0.758 | relative viability ([5]; first compound 0.6325 µM): 0.768 | relative viability ([5]; first compound 2 µM): 0.86
